The record followed here is ChEMBL document CHEMBL1201862, “PubChem BioAssay data set” (2004).

Test systems include SF-539; MOLT-4; K562; DU-145; NCI-H226; OVCAR-5; HCT-15; U-251; NCI-H460; HT-29; A498; HL-60; LOX IMVI; SW-620; RXF 393; M14; SK-OV-3; UACC-62; OVCAR-4; Malme-3M.
Common to all, as to test: growth of human tumour cells (NCI), 48 h

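Values below derive from 48-hour exposures of cells grown in 96-well plates, with endpoints linearly interpolated between the two concentrations bracketing the appropriate inhibition level. GI50 = concentration required for 50% inhibition of growth.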 Calls of active or inactive are those of the source. No stated cut-off is given here; in the data, active = GI50 up to about 1.1 µM and inactive = higher.

Take `N=C(N)SCCc1ccncc1`: the GI50 with SF-539, in the assay with MOLT-4, with K562, with DU-145, in the assay on NCI-H226 and with OVCAR-5 was > 100 µM (inactive) each time. Moreover, the GI50 in the assay on HCT-15 was > 100 µM; with U-251 it was > 100 µM (inactive); in the assay on NCI-H460 it was > 100 µM (inactive); in the assay on HT-29, > 100 µM (inactive); in the assay with A498, > 100 µM (inactive); with HL-60, > 100 µM (inactive). For the same compound, the GI50 in the assay on LOX IMVI, with SW-620, in the assay with RXF 393, with M14, with SK-OV-3 and in the assay on UACC-62 was > 100 µM (inactive) in each case. The GI50 in the assay on OVCAR-4 is > 100 µM (inactive).
As to `COc1ccc(/C=C2/SC(c3c(O)ccc4ccccc34)N(NC(=O)CCCCCCCCC(=O)NN3C(=O)/C(=C\c4ccc(OC)c(OC)c4)SC3c3c(O)ccc4ccccc34)C2=O)cc1OC` (stereo not given), the GI50 in the assay on SF-539 is 1.01 µM (active); in the assay on MOLT-4 it was 0.176 µM (active); with K562, 1.2 µM (inactive); with DU-145, 1.61 µM (inactive); in the assay with NCI-H226 it was 0.855 µM (active); with OVCAR-5, 21.5 µM (inactive). The GI50 with HCT-15 is 0.871 µM; with U-251, 1.26 µM (inactive); with NCI-H460 it was 0.649 µM (active); with HT-29, 3.65 µM (inactive); with A498, 7.6 µM (inactive); with LOX IMVI it was 0.394 µM (active). Further, the GI50 in the assay on SW-620 was 1.53 µM (inactive); with RXF 393, 3.56 µM (inactive); in the assay on M14, 0.897 µM (active); in the assay with Malme-3M, 2 µM (inactive); in the assay on SK-OV-3 it was 2.24 µM (inactive); with UACC-62 it was 1.56 µM (inactive). Also, in the assay with OVCAR-4, the GI50 is 1.64 µM (inactive).
For `O=C(Nc1ccc(F)cc1)c1cc2c(cc1Cl)Sc1nccn1S2(=O)=O`, the GI50 in the assay on SF-539 is 37 µM (inactive); with MOLT-4, > 100 µM (inactive); in the assay on K562 it was > 100 µM (inactive); in the assay with DU-145 it was > 100 µM (inactive); in the assay on NCI-H226, > 100 µM (inactive); in the assay with OVCAR-5 it was > 100 µM (inactive). The GI50 in the assay with HCT-15 was 81.7 µM; with U-251 it was 16.3 µM (inactive); in the assay on NCI-H460, 33.5 µM (inactive); with HT-29, > 100 µM (inactive); in the assay on A498, 23.7 µM (inactive); in the assay with LOX IMVI it was > 100 µM (inactive). For the same compound, the GI50 was > 100 µM (inactive) in the assay with SW-620; 31.7 µM (inactive) in the assay with RXF 393; > 100 µM (inactive) in the assay with M14; > 100 µM (inactive) with Malme-3M; 94.6 µM (inactive) in the assay with SK-OV-3; 55.7 µM (inactive) in the assay with OVCAR-4.
Regarding `O=C(c1ccc2ccccc2c1O)N1CCCCC1`, the GI50 in the assay on SF-539 was > 100 µM (inactive); with MOLT-4 it was 23.2 µM (inactive); with K562, 28.4 µM (inactive); in the assay on DU-145, > 100 µM (inactive); with NCI-H226, > 100 µM (inactive); in the assay with HCT-15, > 100 µM. Moreover, the GI50 was > 100 µM (inactive) with U-251; 80.7 µM (inactive) in the assay on NCI-H460; > 100 µM (inactive) with HT-29; > 100 µM (inactive) in the assay on A498; 68.9 µM (inactive) in the assay on HL-60; 90.4 µM (inactive) in the assay with LOX IMVI. Also, the GI50 with SW-620, in the assay with RXF 393, with M14, with SK-OV-3, with UACC-62 and with OVCAR-4 was > 100 µM (inactive) in each case.
With `CCC(C)[C@H]1C(=O)N=C(N)N1C(=O)OCc1ccccc1` (stereo not given in full), the GI50 with MOLT-4 was > 100 µM (inactive); in the assay on K562, > 100 µM (inactive); in the assay with DU-145, > 100 µM (inactive); in the assay with NCI-H226, > 100 µM (inactive); in the assay on OVCAR-5, > 100 µM (inactive); with HCT-15 it was > 100 µM. Besides, the GI50 with U-251, in the assay on NCI-H460, with HT-29, in the assay with A498, in the assay with HL-60 and in the assay on LOX IMVI was > 100 µM (inactive) in each case. The GI50 in the assay on SW-620, in the assay on RXF 393, in the assay on Malme-3M, in the assay on UACC-62 and with OVCAR-4 was > 100 µM (inactive) throughout.
Take `Cc1nc(C)c(C(=O)NNC(=O)C[N+](C)(C)C)cc1C(=O)NNC(=O)C[N+](C)(C)C`: the GI50 is > 100 µM (inactive) in the assay on SF-539; > 100 µM (inactive) in the assay with DU-145; > 100 µM (inactive) with NCI-H226; > 100 µM (inactive) with OVCAR-5; > 100 µM in the assay on HCT-15; > 100 µM (inactive) in the assay on U-251. For the same compound, the GI50 is > 100 µM (inactive) in the assay with NCI-H460; > 100 µM (inactive) with HT-29; > 100 µM (inactive) in the assay on A498; 62.1 µM (inactive) with HL-60; > 100 µM (inactive) in the assay on LOX IMVI; > 100 µM (inactive) with SW-620. The GI50 with RXF 393, in the assay on M14, in the assay on SK-OV-3, in the assay on UACC-62 and in the assay with OVCAR-4 was > 100 µM (inactive) in each case.
For `N#Cc1ccsc1Nc1ccccc1[N+](=O)[O-]`, the GI50 in the assay on SF-539, in the assay on MOLT-4, in the assay with K562, in the assay with DU-145, in the assay with NCI-H226 and with OVCAR-5 was > 100 µM (inactive) in each case. In addition, the GI50 in the assay with HCT-15 is > 100 µM; in the assay on U-251, 72.9 µM (inactive); in the assay with NCI-H460, > 100 µM (inactive); with A498, > 100 µM (inactive); in the assay with SW-620, > 100 µM (inactive); in the assay with RXF 393, 86.9 µM (inactive). The GI50 in the assay with M14, with Malme-3M, in the assay on SK-OV-3, with UACC-62 and in the assay with OVCAR-4 was > 100 µM (inactive) throughout.
Turning to `CN(NC(=O)/C(=C/c1ccc(Cl)cc1)NC(=O)c1ccccc1)c1cn[nH]c(=O)c1Cl`, the GI50 in the assay with SF-539 is > 100 µM (inactive); in the assay on MOLT-4, 19.9 µM (inactive); in the assay with K562, > 100 µM (inactive); with DU-145, > 100 µM (inactive); with NCI-H226, 31.1 µM (inactive); with OVCAR-5 it was > 100 µM (inactive). Moreover, the GI50 with HCT-15 is > 100 µM; with U-251, 40.9 µM (inactive); in the assay with NCI-H460, > 100 µM (inactive); with HT-29, > 100 µM (inactive); with HL-60, 12.7 µM (inactive); in the assay with LOX IMVI, 62.7 µM (inactive). Besides, the GI50 in the assay on SW-620 is > 100 µM (inactive); with RXF 393, > 100 µM (inactive); with M14 it was > 100 µM (inactive); in the assay on Malme-3M, 54.5 µM (inactive); in the assay on SK-OV-3, > 100 µM (inactive); in the assay on UACC-62, 97.1 µM (inactive). Besides, in the assay on OVCAR-4, the GI50 is > 100 µM (inactive).
`CCOC(=O)c1csc(NC(=O)C(C)N2CCCC2)n1` (stereo not given): the GI50 with SF-539 is > 100 µM (inactive); in the assay on K562, > 100 µM (inactive); with DU-145, > 100 µM (inactive); in the assay with OVCAR-5 it was > 100 µM (inactive); in the assay with HCT-15, > 100 µM; in the assay with U-251 it was > 100 µM (inactive). The GI50 in the assay with NCI-H460, in the assay on HT-29, in the assay with A498, with LOX IMVI, in the assay with SW-620 and with RXF 393 was > 100 µM (inactive) in each case. Besides, the GI50 in the assay with M14, with SK-OV-3, in the assay with UACC-62 and in the assay with OVCAR-4 was > 100 µM (inactive) in each case.
Turning to `CCN1CCC(O)(c2ccc(Oc3ccc(C)cc3)cc2)C(C(=O)c2ccc(Oc3ccc(C)cc3)cc2)C1` (stereo not given), the GI50 with MOLT-4 is 10.3 µM (inactive); in the assay with K562 it was 2.95 µM (inactive); with DU-145, 7.28 µM (inactive); in the assay with NCI-H226 it was 14.1 µM (inactive); in the assay with OVCAR-5, 13.9 µM (inactive); with HCT-15, 4.01 µM. The GI50 is 11.6 µM (inactive) in the assay on U-251; 3.28 µM (inactive) in the assay on NCI-H460; 3.33 µM (inactive) in the assay with HT-29; 0.426 µM (active) with A498; 1.68 µM (inactive) in the assay on HL-60; 3.69 µM (inactive) in the assay with LOX IMVI. Further, the GI50 in the assay with SW-620 was 12.9 µM (inactive); in the assay with RXF 393, 2.81 µM (inactive); in the assay on M14, 7.43 µM (inactive); in the assay on Malme-3M, 14.6 µM (inactive); in the assay with SK-OV-3, 16.1 µM (inactive); in the assay on UACC-62, 12.1 µM (inactive). The GI50 in the assay with OVCAR-4 was 1.94 µM (inactive).
`CCN(CC(=O)O)C(=O)c1cccnc1`: the GI50 in the assay with MOLT-4 was > 100 µM (inactive); in the assay on K562 it was > 100 µM (inactive); in the assay with DU-145, > 100 µM (inactive); in the assay with OVCAR-5 it was > 100 µM (inactive); with HCT-15, > 100 µM; in the assay on U-251 it was > 100 µM (inactive). Also, the GI50 in the assay on NCI-H460, with HT-29, in the assay with A498, with LOX IMVI, in the assay with SW-620 and in the assay with RXF 393 was > 100 µM (inactive) each time. Besides, the GI50 in the assay with M14, in the assay with Malme-3M, in the assay with UACC-62 and in the assay on OVCAR-4 was > 100 µM (inactive) each time.
